Results on 11 compounds are retold here after PubChem BioAssay (NCI).

Each structure is given as a SMILES string.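 Growth conditions: 96-well plates. Treatment: test compound, 48 hours, 5 concentrations. Analysis: linear interpolation between bracketing concentrations; unreached endpoints set to highest concentration. The concentration for full growth arrest is given as TGI.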

Some test systems named below: MCF7 breast; HCT-116 colon; MDA-N; OVCAR-3 ovarian; MALME-3M melanoma; HCC-2998 colon; IGROV1 ovarian; UO-31 renal; OVCAR-8 ovarian; A549 NSCLC.
Experiment in all cases: NCI tumour cell line growth inhibition, 48 h

As for `Cn1c(=O)c2c(nc3n2CC(C(=O)O)N3)n(C)c1=O` (stereo not given), the TGI with MCF7 breast, in the assay on HCT-116 colon, in the assay on MDA-N, in the assay on OVCAR-3 ovarian, with MALME-3M melanoma and with HCC-2998 colon was above 100 µM throughout. For the same compound, the TGI with IGROV1 ovarian, in the assay with UO-31 renal, with OVCAR-8 ovarian and with A549 NSCLC was above 100 µM each time.

For `C=C1CCN2CC[C@@H](OC(=O)/C(C)=C\C)[C@@H]12`, the TGI in the assay with MCF7 breast, in the assay on HCT-116 colon, in the assay with MDA-N, in the assay with OVCAR-3 ovarian, in the assay with MALME-3M melanoma and in the assay on HCC-2998 colon was above 100 µM each time. Also, the TGI with IGROV1 ovarian, with UO-31 renal, in the assay with OVCAR-8 ovarian and in the assay with A549 NSCLC was above 100 µM in each case.

For the compound `CN(C)CCNS(=O)(=O)c1ccc(N)cc1`, the TGI in the assay with MCF7 breast was above 100 µM; in the assay on HCT-116 colon it was above 100 µM; with MDA-N it was above 100 µM; in the assay on OVCAR-3 ovarian, 31 µM; with MALME-3M melanoma it was above 100 µM; in the assay on HCC-2998 colon, above 100 µM. Further, the TGI with IGROV1 ovarian, in the assay with UO-31 renal, with OVCAR-8 ovarian and with A549 NSCLC was above 100 µM in each case.

For `Oc1ccc(Cc2cc(Cc3ccc(O)cc3)cc(Cc3ccc(O)cc3)c2)cc1`, the TGI in the assay with MCF7 breast, in the assay on HCT-116 colon, in the assay with MDA-N, in the assay with OVCAR-3 ovarian, in the assay on MALME-3M melanoma and in the assay with HCC-2998 colon was above 50 µM each time. The TGI in the assay on IGROV1 ovarian, in the assay with UO-31 renal, with OVCAR-8 ovarian and with A549 NSCLC was above 50 µM in each case.

Take `Nc1nccc(-c2c[nH]c3cc(Br)ccc23)n1`: the TGI is above 100 µM in the assay on MCF7 breast; 40.2 µM in the assay on HCT-116 colon; 45.8 µM in the assay with MDA-N; above 100 µM with OVCAR-3 ovarian; above 100 µM with MALME-3M melanoma; 64.9 µM in the assay on HCC-2998 colon. Further, the TGI in the assay on IGROV1 ovarian was above 100 µM; with UO-31 renal, 39 µM; with OVCAR-8 ovarian, above 100 µM; in the assay on A549 NSCLC, 35.5 µM.

Take `NC(N)=Nc1ccc(CC(N)NCC(=O)O)cc1` (stereo not given): the TGI with MCF7 breast, with HCT-116 colon, with MDA-N, in the assay with OVCAR-3 ovarian, in the assay with MALME-3M melanoma and with HCC-2998 colon was above 25 µM in each case. Further, the TGI in the assay on IGROV1 ovarian, with UO-31 renal, with OVCAR-8 ovarian and in the assay with A549 NSCLC was above 25 µM throughout.

Take `O=[N+]([O-])c1cc(C=NC23CC4CC(CC(C4)C2)C3)ccc1Cl`: the TGI turned out to be 27.9 µM in the assay with MCF7 breast; 19.5 µM in the assay with HCT-116 colon; 32.3 µM in the assay on MDA-N; 33.9 µM with OVCAR-3 ovarian; 42.5 µM in the assay on MALME-3M melanoma; 75.1 µM with HCC-2998 colon. For the same compound, the TGI in the assay with IGROV1 ovarian is 47.5 µM; in the assay on UO-31 renal, 15.8 µM; in the assay with OVCAR-8 ovarian, above 90.9 µM; in the assay with A549 NSCLC, above 100 µM.

In the case of `Nn1c(-c2ccccc2)n[nH]c1=O`, the TGI in the assay on MCF7 breast, in the assay on HCT-116 colon, in the assay on MDA-N, with OVCAR-3 ovarian, with MALME-3M melanoma and in the assay on HCC-2998 colon was above 100 µM in each case. Besides, the TGI with IGROV1 ovarian, in the assay on UO-31 renal, with OVCAR-8 ovarian and in the assay with A549 NSCLC was above 100 µM throughout.

In the case of `CC1(C)O[C@H]2OC(CO[Si](C)(C)C(C)(C)C)C(N=[N+]=[N-])[C@H]2O1` (stereo not given in full), the TGI worked out at 36.8 µM with MCF7 breast; 28.9 µM in the assay on HCT-116 colon; 53.8 µM in the assay on MDA-N; 38.1 µM with OVCAR-3 ovarian; 31.7 µM in the assay with MALME-3M melanoma; 32.2 µM in the assay on HCC-2998 colon. Moreover, the TGI was 21.8 µM in the assay on IGROV1 ovarian, 32.3 µM with UO-31 renal, 38.1 µM with OVCAR-8 ovarian and 35.8 µM with A549 NSCLC.

Regarding `CC(C)=CCC[C@@H](C)c1c(O)c(O)c(C)c2nccnc12`, the TGI in the assay on MCF7 breast was above 100 µM; with HCT-116 colon, above 100 µM; in the assay with MDA-N, above 100 µM; in the assay on OVCAR-3 ovarian, above 100 µM; in the assay with MALME-3M melanoma it was 66.7 µM; with HCC-2998 colon, above 96.6 µM. The TGI in the assay with IGROV1 ovarian is above 81.5 µM; in the assay on UO-31 renal it was 45.9 µM; with OVCAR-8 ovarian, above 48.6 µM; with A549 NSCLC, above 100 µM.

Turning to `Cc1ccc(NC(=O)c2ccc(OP(=O)(O)Nc3ccc(C)cc3)cc2)cc1`, the TGI in the assay on MCF7 breast, in the assay on HCT-116 colon, in the assay on MDA-N, in the assay on OVCAR-3 ovarian, in the assay with MALME-3M melanoma and in the assay on HCC-2998 colon was above 100 µM each time. The TGI in the assay on IGROV1 ovarian, in the assay on UO-31 renal, in the assay with OVCAR-8 ovarian and in the assay on A549 NSCLC was above 100 µM in each case.
